In ChEMBL document CHEMBL3785006, “Discovery of 2-Indole-acylsulfonamide Myeloid Cell Leukemia 1 (Mcl-1) Inhibitors Using Fragment-Based Methods” (J Med Chem, 2016):

Molecular target: Induced myeloid leukemia cell differentiation protein Mcl-1 (Homo sapiens, UniProt Q07820)
Sequence (Q07820 whole entry): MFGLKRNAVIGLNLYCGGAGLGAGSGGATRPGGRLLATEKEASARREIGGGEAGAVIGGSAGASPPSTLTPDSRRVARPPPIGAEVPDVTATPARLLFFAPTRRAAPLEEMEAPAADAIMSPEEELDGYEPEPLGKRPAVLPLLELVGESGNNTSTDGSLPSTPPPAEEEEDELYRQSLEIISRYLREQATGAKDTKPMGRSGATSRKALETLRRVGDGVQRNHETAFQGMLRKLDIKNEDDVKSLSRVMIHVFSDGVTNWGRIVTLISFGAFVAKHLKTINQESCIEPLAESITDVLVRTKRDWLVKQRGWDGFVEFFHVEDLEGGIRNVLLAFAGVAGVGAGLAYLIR

Kd: 1500 µM
Structure (SMILES): Oc1ccccc1-c1cc(C(F)(F)C(F)(F)F)[nH]n1
